Measured values reported in ChEMBL document CHEMBL3045546, “Synthesis and antimicrobial screening of 4-thiazolidinone and 2-azetidinone derivatives of piperazine” (2013).
Converted amounts (≈) assume the structure as drawn.

Tests used:
Type in all cases: functional
Bacillus cereus = assay: Antimicrobial activity against Bacillus cereus ATCC 11778 assessed as growth inhibition by broth dilution method
Bacillus pumilus = assay: Antimicrobial activity against Bacillus pumilus ATCC 14884 assessed as growth inhibition by broth dilution method
Staphylococcus hominis = assay: Antimicrobial activity against Staphylococcus hominis ATCC 27844 assessed as growth inhibition by broth dilution method
Staphylococcus aureus = assay: Antimicrobial activity against Staphylococcus aureus ATCC 25923 assessed as growth inhibition by broth dilution method
[1] = system: Staphylococcus epidermidis; assay: Antimicrobial activity against Staphylococcus epidermidis ATCC 12228 assessed as growth inhibition by broth dilution method
Micrococcus luteus = assay: Antimicrobial activity against Micrococcus luteus ATCC 4698 assessed as growth inhibition by broth dilution method
Bacillus subtilis = assay: Antimicrobial activity against Bacillus subtilis ATCC 6633 assessed as growth inhibition by broth dilution method
Aspergillus fumigatus = assay: Antimicrobial activity against Aspergillus fumigatus assessed as growth inhibition by broth dilution method
Aspergillus flavus = assay: Antimicrobial activity against Aspergillus flavus ATCC 15517 assessed as growth inhibition by broth dilution method
Trichoderma viride = assay: Antimicrobial activity against Hypocrea rufa ATCC 52440 assessed as growth inhibition by broth dilution method
Fusarium solani = assay: Antimicrobial activity against Fusarium solani ATCC 38136 assessed as growth inhibition by broth dilution method
Trichophyton longifusum = assay: Antimicrobial activity against Trichophyton longifusum ATCC 22397 assessed as growth inhibition by broth dilution method
Rhizoctonia solani = assay: Antimicrobial activity against Rhizoctonia solani ATCC 76131 assessed as growth inhibition by broth dilution method
Alternaria alternata = assay: Antimicrobial activity against Alternaria alternata ATCC 66868 assessed as growth inhibition by broth dilution method
Microsporum canis = assay: Antimicrobial activity against Arthroderma otae ATCC 11622 assessed as growth inhibition by broth dilution method
Candida albicans = assay: Antimicrobial activity against Candida albicans ATCC 10231 assessed as growth inhibition by broth dilution method
Aspergillus awamori = assay: Antimicrobial activity against Aspergillus awamori ATCC 22342 assessed as growth inhibition by broth dilution method
Aspergillus niger = assay: Antimicrobial activity against Aspergillus niger ATCC 9142 assessed as growth inhibition by broth dilution method
Pseudomonas aeruginosa = assay: Antimicrobial activity against Pseudomonas aeruginosa ATCC 10145 assessed as growth inhibition by broth dilution method
Escherichia coli = assay: Antimicrobial activity against Escherichia coli ATCC 25922 assessed as growth inhibition by broth dilution method
Salmonella typhi = assay: Antimicrobial activity against Salmonella enterica subsp. enterica serovar Typhi ATCC 19430 assessed as growth inhibition by broth dilution method
Klebsiella pneumoniae = assay: Antimicrobial activity against Klebsiella pneumoniae ATCC 13883 assessed as growth inhibition by broth dilution method
Proteus mirabilis = assay: Antimicrobial activity against Proteus mirabilis ATCC 49565 assessed as growth inhibition by broth dilution method
Proteus vulgaris = assay: Antimicrobial activity against Proteus vulgaris ATCC 13315 assessed as growth inhibition by broth dilution method

| SMILES | MIC (Bacillus cereus) [µg/mL] | MIC (Bacillus pumilus) [µg/mL] | MIC (Staphylococcus hominis) [µg/mL] | MIC (Staphylococcus aureus) [µg/mL] | MIC [1] [µg/mL] | MIC (Micrococcus luteus) [µg/mL] | MIC (Bacillus subtilis) [µg/mL] | MIC (Aspergillus fumigatus) [µg/mL] | MIC (Aspergillus flavus) [µg/mL] | MIC (Trichoderma viride) [µg/mL] | MIC (Fusarium solani) [µg/mL] | MIC (Trichophyton longifusum) [µg/mL] | MIC (Rhizoctonia solani) [µg/mL] | MIC (Alternaria alternata) [µg/mL] | MIC (Microsporum canis) [µg/mL] | MIC (Candida albicans) [µg/mL] | MIC (Aspergillus awamori) [µg/mL] | MIC (Aspergillus niger) [µg/mL] | MIC (Pseudomonas aeruginosa) [µg/mL] | MIC (Escherichia coli) [µg/mL] | also measured |
| --- | --- | --- | --- | --- | --- | --- | --- | --- | --- | --- | --- | --- | --- | --- | --- | --- | --- | --- | --- | --- | --- |
| O=C(CCl)N1CCN(CCN2C(=O)C(Cl)C2c2ccccc2O)CC1 (configuration not stated) | 150 (≈ 388 µM) | 75 (≈ 194 µM) | 150 (≈ 388 µM) | 75 (≈ 194 µM) | 150 (≈ 388 µM) | 75 (≈ 194 µM) | 150 (≈ 388 µM) | 300 (≈ 777 µM) | 300 (≈ 777 µM) | 300 (≈ 777 µM) | 300 (≈ 777 µM) | 300 (≈ 777 µM) | 300 (≈ 777 µM) | 300 (≈ 777 µM) | 300 (≈ 777 µM) | 300 (≈ 777 µM) | 300 (≈ 777 µM) | 300 (≈ 777 µM) | 75 (≈ 194 µM) | 150 (≈ 388 µM) | MIC (Salmonella typhi): 75 µg/mL (≈ 194 µM); MIC (Klebsiella pneumoniae): 150 µg/mL (≈ 388 µM); MIC (Proteus mirabilis): 75 µg/mL (≈ 194 µM); MIC (Proteus vulgaris): 75 µg/mL (≈ 194 µM) |
| O=C(CCl)N1CCN(CCN2C(=O)C(Cl)C2c2cccc(O)c2)CC1 (configuration not stated) | 37.5 (≈ 97.1 µM) | 37.5 (≈ 97.1 µM) | 37.5 (≈ 97.1 µM) | 37.5 (≈ 97.1 µM) | 18.8 (≈ 48.5 µM) | 18.8 (≈ 48.5 µM) | 18.8 (≈ 48.5 µM) | 75 (≈ 194 µM) | 75 (≈ 194 µM) | 37.5 (≈ 97.1 µM) | 37.5 (≈ 97.1 µM) | 75 (≈ 194 µM) | 37.5 (≈ 97.1 µM) | 37.5 (≈ 97.1 µM) | 75 (≈ 194 µM) | 37.5 (≈ 97.1 µM) | 75 (≈ 194 µM) | 37.5 (≈ 97.1 µM) | 37.5 (≈ 97.1 µM) | 18.8 (≈ 48.5 µM) | MIC (Salmonella typhi): 37.5 µg/mL (≈ 97.1 µM); MIC (Klebsiella pneumoniae): 37.5 µg/mL (≈ 97.1 µM); MIC (Proteus mirabilis): 37.5 µg/mL (≈ 97.1 µM); MIC (Proteus vulgaris): 18.8 µg/mL (≈ 48.5 µM) |
| O=C(CCl)N1CCN(CCN2C(=O)C(Cl)C2c2ccc(O)cc2)CC1 (configuration not stated) | 9.37 (≈ 24.3 µM) | 9.37 (≈ 24.3 µM) | 9.37 (≈ 24.3 µM) | 9.37 (≈ 24.3 µM) | 9.37 (≈ 24.3 µM) | 9.37 (≈ 24.3 µM) | 9.37 (≈ 24.3 µM) | 9.37 (≈ 24.3 µM) | 9.37 (≈ 24.3 µM) | 9.37 (≈ 24.3 µM) | 18.8 (≈ 48.5 µM) | 18.8 (≈ 48.5 µM) | 9.37 (≈ 24.3 µM) | 18.8 (≈ 48.5 µM) | 9.37 (≈ 24.3 µM) | 18.8 (≈ 48.5 µM) | 9.37 (≈ 24.3 µM) | 9.37 (≈ 24.3 µM) | 9.37 (≈ 24.3 µM) | 4.68 (≈ 12.1 µM) | MIC (Salmonella typhi): 9.37 µg/mL (≈ 24.3 µM); MIC (Klebsiella pneumoniae): 9.37 µg/mL (≈ 24.3 µM); MIC (Proteus mirabilis): 9.37 µg/mL (≈ 24.3 µM); MIC (Proteus vulgaris): 4.68 µg/mL (≈ 12.1 µM) |
| O=C(CCl)N1CCN(CCN2C(=O)C(Cl)C2c2ccccc2)CC1 (configuration not stated) | 18.8 (≈ 50.6 µM) | 18.8 (≈ 50.6 µM) | 37.5 (≈ 101 µM) | 18.8 (≈ 50.6 µM) | 37.5 (≈ 101 µM) | 18.8 (≈ 50.6 µM) | 75 (≈ 203 µM) | 75 (≈ 203 µM) | 75 (≈ 203 µM) | 75 (≈ 203 µM) | 75 (≈ 203 µM) | 37.5 (≈ 101 µM) | 75 (≈ 203 µM) | 37.5 (≈ 101 µM) | 75 (≈ 203 µM) | 75 (≈ 203 µM) | 75 (≈ 203 µM) | 75 (≈ 203 µM) | 18.8 (≈ 50.6 µM) | 37.5 (≈ 101 µM) | MIC (Salmonella typhi): 37.5 µg/mL (≈ 101 µM); MIC (Klebsiella pneumoniae): 37.5 µg/mL (≈ 101 µM); MIC (Proteus mirabilis): 18.8 µg/mL (≈ 50.6 µM); MIC (Proteus vulgaris): 37.5 µg/mL (≈ 101 µM) |
| COc1cc(C2C(Cl)C(=O)N2CCN2CCN(C(=O)CCl)CC2)ccc1O (configuration not stated) | 9.37 (≈ 22.5 µM) | 9.37 (≈ 22.5 µM) | 9.37 (≈ 22.5 µM) | 9.37 (≈ 22.5 µM) | 9.37 (≈ 22.5 µM) | 4.68 (≈ 11.2 µM) | 9.37 (≈ 22.5 µM) | 18.8 (≈ 45 µM) | 9.37 (≈ 22.5 µM) | 18.8 (≈ 45 µM) | 18.8 (≈ 45 µM) | 9.37 (≈ 22.5 µM) | 9.37 (≈ 22.5 µM) | 18.8 (≈ 45 µM) | 18.8 (≈ 45 µM) | 9.37 (≈ 22.5 µM) | 18.8 (≈ 45 µM) | 18.8 (≈ 45 µM) | 4.68 (≈ 11.2 µM) | 9.37 (≈ 22.5 µM) | MIC (Salmonella typhi): 4.68 µg/mL (≈ 11.2 µM); MIC (Klebsiella pneumoniae): 9.37 µg/mL (≈ 22.5 µM); MIC (Proteus mirabilis): 9.37 µg/mL (≈ 22.5 µM); MIC (Proteus vulgaris): 9.37 µg/mL (≈ 22.5 µM) |
| COc1ccc(C2C(Cl)C(=O)N2CCN2CCN(C(=O)CCl)CC2)cc1 (configuration not stated) | 9.37 (≈ 23.4 µM) | 9.37 (≈ 23.4 µM) | 4.68 (≈ 11.7 µM) | 9.37 (≈ 23.4 µM) | 4.68 (≈ 11.7 µM) | 9.37 (≈ 23.4 µM) | 9.37 (≈ 23.4 µM) | 9.37 (≈ 23.4 µM) | 9.37 (≈ 23.4 µM) | 18.8 (≈ 46.8 µM) | 18.8 (≈ 46.8 µM) | 9.37 (≈ 23.4 µM) | 9.37 (≈ 23.4 µM) | 9.37 (≈ 23.4 µM) | 18.8 (≈ 46.8 µM) | 18.8 (≈ 46.8 µM) | 9.37 (≈ 23.4 µM) | 18.8 (≈ 46.8 µM) | 9.37 (≈ 23.4 µM) | 4.68 (≈ 11.7 µM) | MIC (Salmonella typhi): 9.37 µg/mL (≈ 23.4 µM); MIC (Klebsiella pneumoniae): 9.37 µg/mL (≈ 23.4 µM); MIC (Proteus mirabilis): 9.37 µg/mL (≈ 23.4 µM); MIC (Proteus vulgaris): 9.37 µg/mL (≈ 23.4 µM) |
| O=C(CCl)N1CCN(CCN2C(=O)C(Cl)C2c2ccco2)CC1 (configuration not stated) | 75 (≈ 208 µM) | 75 (≈ 208 µM) | 75 (≈ 208 µM) | 150 (≈ 416 µM) | 75 (≈ 208 µM) | 150 (≈ 416 µM) | 150 (≈ 416 µM) | 300 (≈ 833 µM) | 300 (≈ 833 µM) | 300 (≈ 833 µM) | 150 (≈ 416 µM) | 300 (≈ 833 µM) | 300 (≈ 833 µM) | 150 (≈ 416 µM) | 150 (≈ 416 µM) | 300 (≈ 833 µM) | 150 (≈ 416 µM) | 150 (≈ 416 µM) | 150 (≈ 416 µM) | 75 (≈ 208 µM) | MIC (Salmonella typhi): 150 µg/mL (≈ 416 µM); MIC (Klebsiella pneumoniae): 75 µg/mL (≈ 208 µM); MIC (Proteus mirabilis): 150 µg/mL (≈ 416 µM); MIC (Proteus vulgaris): 75 µg/mL (≈ 208 µM) |
| O=C(O)c1cn(C2CC2)c2cc(N3CCNCC3)c(F)cc2c1=O [CIPROFLOXACIN] | 2.34 (≈ 7.06 µM) | 2.34 (≈ 7.06 µM) | 2.34 (≈ 7.06 µM) | 2.34 (≈ 7.06 µM) | 2.34 (≈ 7.06 µM) | 2.34 (≈ 7.06 µM) | 2.34 (≈ 7.06 µM) | – | – | – | – | – | – | – | – | – | – | – | 2.34 (≈ 7.06 µM) | 2.34 (≈ 7.06 µM) | MIC (Salmonella typhi): 2.34 µg/mL (≈ 7.06 µM); MIC (Klebsiella pneumoniae): 2.34 µg/mL (≈ 7.06 µM); MIC (Proteus mirabilis): 2.34 µg/mL (≈ 7.06 µM); MIC (Proteus vulgaris): 2.34 µg/mL (≈ 7.06 µM) |
| Clc1ccccc1C(c1ccccc1)(c1ccccc1)n1ccnc1 [CLOTRIMAZOLE] | – | – | – | – | – | – | – | 4.68 (≈ 13.6 µM) | 2.34 (≈ 6.79 µM) | 2.34 (≈ 6.79 µM) | 4.68 (≈ 13.6 µM) | 4.68 (≈ 13.6 µM) | 2.34 (≈ 6.79 µM) | 1.17 (≈ 3.39 µM) | 4.68 (≈ 13.6 µM) | 2.34 (≈ 6.79 µM) | 4.68 (≈ 13.6 µM) | 2.34 (≈ 6.79 µM) | – | – | – |
